The text below walks through data of patent US20140228274A1, “Liquid Detergent Composition” (priority 2011, published 2014).

For assay [1], the target named is T1, Savinase 16L (subtilisin) (Lederbergia lenta, UniProt P29600).
T1 construct: purchased Novozymes Savinase 16L
T1 sequence (P29600 1-269): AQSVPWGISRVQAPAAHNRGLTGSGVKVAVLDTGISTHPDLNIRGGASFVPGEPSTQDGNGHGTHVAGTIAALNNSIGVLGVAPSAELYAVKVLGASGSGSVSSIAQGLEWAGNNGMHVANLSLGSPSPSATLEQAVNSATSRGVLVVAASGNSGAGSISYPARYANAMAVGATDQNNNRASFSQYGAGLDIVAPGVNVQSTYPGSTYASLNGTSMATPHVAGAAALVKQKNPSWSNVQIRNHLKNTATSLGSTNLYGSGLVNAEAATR
The assay can be described thus: Storage stability in liquid detergent: residual protease activity (hydrolysis of N,N-dimethylcasein at 40° C., pH 8.3). Format: biochemical. As to conditions: for Residual protease activity, 4 weeks at 35° C. (% of initial activity): inhibitor dosage 'yes'. As for the experimental part:
(§1) General experimental details: Detergents containing Savinase 16L and either X—B^1—B^0—H or X—B^1—NH—CHR—CHOH—SO3Na; or Savinase 16L; are placed in closed glasses at −18° C.; 35° C. and 40° C. Residual activities of protease and lipase are measured after different times using standard analytical methods (protease by hydrolysis of N,N-dimethylcasein at 40° C., pH 8.3 and lipase by hydrolysis of pNp-valerate at 40° C., pH 7.7). The inhibitor and protease may also be added individually to the detergent.
(§2) As an example of liquid detergents with a stabilized subtilisin formulation, the compositions described in Table 1 were made.
(§3) As another example of detergents with a stabilized subtilisin formulation, the compositions described in Table 3 were made.

The next assay deals with Lipex 100L (lipase). The experiment in a line: Storage stability in liquid detergent: residual lipase activity (hydrolysis of pNp-valerate at 40° C., pH 7.7). Format: biochemical. As for the experimental part: as §1, §2, §3
The mark [2] stands for this setting: Detergent A, no Na formate, inhibitor 21 ppm (peptide aldehydes) or 26 ppm (hydrosulfite adduct) in detergent.
Setting [3] is: Detergent B, 2% Na formate, inhibitor 21 ppm (peptide aldehydes) or 26 ppm (hydrosulfite adduct) in detergent.
Where [4] appears, read: Detergent B, 2% Na formate alone, no inhibitor.

As for Cbz-GAY-H, the “Residual protease activity, 2 weeks at 40° C. (% of initial activity)” value in assay [1] (setting [2]) is 5%; in assay [1] (setting [3]) it was 71%. Further, the “Residual protease activity, 4 weeks at 35° C. (% of initial activity)” value in assay [1] (Detergent E (12% LAS, pH 8.4), no Na formate) stood at 43%; in assay [1] (Detergent F (12% LAS, pH 8.4), 2% Na formate), 88%. In addition, the “Residual lipase activity, 2 weeks at 35° C. (% of initial activity)” value in the assay on Lipex 100L (lipase) (setting [2]) amounted to 16%; in the assay with Lipex 100L (lipase) (setting [3]), 32%; in the assay with Lipex 100L (lipase) (Detergent E (12% LAS, pH 8.4), no Na formate, inhibitor dosage 'yes'), 14%; with Lipex 100L (lipase) (Detergent F (12% LAS, pH 8.4), 2% Na formate, inhibitor dosage 'yes'), 27%.
Turning to Cbz-VAL-H, the results for the “Residual protease activity, 2 weeks at 40° C. (% of initial activity)” value in assay [1] (setting [2]) and in assay [1] (setting [3]) were 2% and 49%, respectively. Further, the figures for the “Residual lipase activity, 2 weeks at 35° C. (% of initial activity)” value with Lipex 100L (lipase) (setting [2]) and in the assay with Lipex 100L (lipase) (setting [3]) were 13% and 30%, respectively.
For `O=C[O-].[Na+]` [Na formate, sodium formate], the “Residual protease activity, 2 weeks at 40° C. (% of initial activity)” value in assay [1] (setting [4]) stood at 1%. Also, the “Residual lipase activity, 2 weeks at 35° C. (% of initial activity)” value with Lipex 100L (lipase) (setting [4]) came to 3%.
